Source: US6685617B1, “Inhibitors of α4β1 mediated cell adhesion” (Pharmacia & Upjohn Company, priority 1998, dated 2004)

Key:
[1] = biological target: T1, α4β1 integrin (Jurkat T-cell adhesion to IL-1 stimulated endothelial cell monolayers) (Homo sapiens, UniProt P05556+P13612); assay: Jurkat-endothelial cell adhesion assay (Jurkat EC); type: cell-based; details: Jurkat cells on IL-1 stimulated human umbilical vein endothelial cells; read-out: JK/EC (Jurkat EC Assay IC50 value range)
T1 construct: a T-cell line, Jurkat, known to express the α4β1 integrin; host or cells: Jurkat T-cell line
T1 sequence (P13612 34-1032): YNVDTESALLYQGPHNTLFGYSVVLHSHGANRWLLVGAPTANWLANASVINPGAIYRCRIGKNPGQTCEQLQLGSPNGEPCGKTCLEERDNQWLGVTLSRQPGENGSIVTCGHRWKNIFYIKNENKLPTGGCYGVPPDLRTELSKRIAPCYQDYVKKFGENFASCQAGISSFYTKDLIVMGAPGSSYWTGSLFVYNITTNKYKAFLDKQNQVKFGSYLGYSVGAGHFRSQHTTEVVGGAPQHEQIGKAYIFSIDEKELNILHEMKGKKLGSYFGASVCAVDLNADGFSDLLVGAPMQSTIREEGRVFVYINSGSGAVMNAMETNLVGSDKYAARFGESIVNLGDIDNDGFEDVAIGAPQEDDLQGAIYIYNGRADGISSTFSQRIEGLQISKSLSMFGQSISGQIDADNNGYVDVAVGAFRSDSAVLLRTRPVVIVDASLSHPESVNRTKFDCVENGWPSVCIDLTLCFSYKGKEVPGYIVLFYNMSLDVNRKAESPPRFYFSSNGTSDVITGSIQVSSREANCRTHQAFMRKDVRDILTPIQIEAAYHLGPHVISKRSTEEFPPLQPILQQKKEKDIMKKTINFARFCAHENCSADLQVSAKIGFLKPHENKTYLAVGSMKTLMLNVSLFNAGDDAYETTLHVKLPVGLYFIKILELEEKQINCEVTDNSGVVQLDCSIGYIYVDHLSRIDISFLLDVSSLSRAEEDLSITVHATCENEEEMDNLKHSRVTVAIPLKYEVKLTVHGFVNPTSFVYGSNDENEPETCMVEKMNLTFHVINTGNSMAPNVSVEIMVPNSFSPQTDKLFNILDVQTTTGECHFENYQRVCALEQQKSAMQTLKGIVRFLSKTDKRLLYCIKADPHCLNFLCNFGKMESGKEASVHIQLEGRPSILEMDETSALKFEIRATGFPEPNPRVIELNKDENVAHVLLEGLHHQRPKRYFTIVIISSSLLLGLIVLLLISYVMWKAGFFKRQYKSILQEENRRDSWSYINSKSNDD
T1 sequence (P05556 21-798): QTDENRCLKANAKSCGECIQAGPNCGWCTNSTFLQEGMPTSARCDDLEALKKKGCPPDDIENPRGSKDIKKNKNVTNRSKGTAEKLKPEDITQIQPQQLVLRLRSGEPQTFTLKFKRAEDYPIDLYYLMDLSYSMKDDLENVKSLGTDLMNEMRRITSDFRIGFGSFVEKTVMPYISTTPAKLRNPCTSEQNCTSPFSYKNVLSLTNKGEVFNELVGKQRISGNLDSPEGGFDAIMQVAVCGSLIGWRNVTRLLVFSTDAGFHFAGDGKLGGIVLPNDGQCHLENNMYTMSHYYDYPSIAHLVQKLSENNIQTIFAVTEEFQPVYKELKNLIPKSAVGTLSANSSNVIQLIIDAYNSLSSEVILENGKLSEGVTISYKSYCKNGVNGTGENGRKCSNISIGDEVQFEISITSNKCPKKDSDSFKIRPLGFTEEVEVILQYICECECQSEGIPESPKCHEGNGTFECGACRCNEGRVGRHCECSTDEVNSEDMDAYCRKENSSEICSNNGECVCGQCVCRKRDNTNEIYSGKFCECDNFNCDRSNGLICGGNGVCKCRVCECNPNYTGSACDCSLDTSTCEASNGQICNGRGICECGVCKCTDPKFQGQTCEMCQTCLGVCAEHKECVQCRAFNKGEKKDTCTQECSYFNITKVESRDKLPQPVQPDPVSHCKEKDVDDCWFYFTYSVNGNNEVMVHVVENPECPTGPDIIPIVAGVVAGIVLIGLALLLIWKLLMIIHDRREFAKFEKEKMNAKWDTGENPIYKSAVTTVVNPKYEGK
Protocol: Jurkat-endothelial Cell Adhesion Assay:
The following assay established the activity of the present compounds in inhibiting β1-mediated cell adhesion in a representative in vitro system. This assay measures the adhesive interactions of a T-cell line, Jurkat, known to express the α4β1 integrin, to endothelial monolayers in the presence of test compounds. The test compounds were added in increasing concentrations to T-cells and then the T-cell compound mixture was added to IL-1 stimulated endothelial cell monolayers. The plates were incubated, washed and the percentage of attached cells was quantitated.
Human umbilical vein endothelial cells were purchased from Clonetics (San Diego, Calif.) at passage number 2. The cells were grown on 0.5% porcine skin gelatin pre-coated flasks (Sigma, St. Louis Mo.) in EGM-UV media (Clonetics, San Diego, Calif.) supplemented with 10% fetal bovine serum. Cells are refed every 2-3 days reaching confluence by day 4 to 6. […] The endothelial cells are not used following passage 6.
The T-cell line Jurkat was obtained from American Type Tissue Culture Collection (Rockville, Md.) and the cells were cultured in RPMI containing 10% fetal calf serum. The cells were washed twice in Hank's Balanced Salt Solution (HBSS) and resuspended in Dulbecco's Minimal Eagle's Media (DMEM) containing 2.5 mg/ml Human Serum Albumin (HSA). Jurkat cells (1×10^6 cells/ml) were stained with 10 ng/ml BCECF-AM (Molecular Probes, Eugene, Oreg.)) in HBSS without phenol red. The cells were loaded with BCECF for 60 minutes in the dark at 370C, washed 2 times, and resuspended in DMEM-HSA solution.
Confluent endothelial monolayers, grown in 96-well tissue culture plates, were stimulated for 4 hr. at 37° C. with 0.1 ng/ml (˜50 U/ml) recombinant IL-1 (Amgen, Thousand Oaks, Calif.). Following this incubation, the monolayers were washed twice with HBSS and 0.1 ml of DMEM−HSA solution was added. Jurkat cells (5×10^5 cells) were combined with the appropriate concentration of the test compound and 0.1 ml of the Jurkat cell-compound mixture was added to the endothelial cell monolayers. Generally, 100, 20, 5 and 1.25 μM compound concentrations were tested. […] The plates were placed on ice for 5 minutes to allow for Jurkat cell settling and the plates were incubated at 37° C. for 20 minutes. Following this incubation, the monolayers were washed twice with PBS containing 1 mM calcium chloride and 1 mM magnesium chloride and the plates were read using a Millipore Cytofluor 2300 (Marlboro, Mass.). Fluorescence in each well was measured as Arbitrary Fluorescence Units and percent adhesion in the absence of compound was adjusted to 100% and the % adhesion in the presence of compound was calculated. Monolayers were also fixed in 3% paraformaldehyde and evaluated microscopically to verify the adhesion. This procedure is a modification of a previously published method (Cardarelli et al., J. Biol. Chem. 269:18668-18673 (1994)).

[2] = biological target: T2, α4β1 integrin (Jurkat cell adhesion to immobilized CS-1 derived peptide CLHPGEILDVPST) (Homo sapiens, UniProt P05556+P13612); assay: Jurkat-CS-1 assay; type: cell-based; details: Jurkat cells on CS-1 peptide coated plates; read-out: JK/CS-1 (Jurkat CS-1 Assay IC50 value range)
T2 construct: 100 μl of Jurkat cells (2.5×10^6 cells/ml) in DMEM plus BSA; host or cells: Jurkat T-cell line
T2 sequence (P13612 34-1032): as the sequence (P13612 34-1032) above
T2 sequence (P05556 21-798): as the sequence (P05556 21-798) above
Protocol: The CS-1 derived peptide, CLHPGEILDVPST, and the scrambled control peptide, CLHGPIELVSDPT, were synthesized on a Beckman 990 synthesizer using t-Boc methodology. The peptides were immobilized onto microtiter plates using the heterobifunctional crosslinker 3-(2-pyridyldithio)propionic acid N-hydroxysuccinimide ester (SPDP) as reported by Pierschbacher et al., Proc. Natl. Acad. USA, 80:1224-1227 (1983). Microtiter plates were coated with 20 μg/ml HSA for 2 hr. at room temperature, washed once with PBS and derivatized with 10 μg/ml SPDP for 1 hr. After washing, 100 μl of a 100 μg/ml cysteine containing peptide solution which had been recently dissolved was added to the wells and allowed to crosslink to the plates overnight at 4° C. Unbound peptide was removed from plates by washing with PBS. To block non-reacted sites, the plates are coated with 100 μl of a 2.5 mg/ml BSA solution in PBS for 1 hr. at 37° C. 100 μl of Jurkat cells (2.5×10^6 cells/ml) in DMEM plus BSA (2.5 mg/ml) was mixed with an appropriate concentration of the compound to be tested and the mixture was added to peptide coated dishes and incubated for 1 hr. at 37° C. Generally 100, 20, 5 and 1.25 μM concentrations of the compound were tested.
Following this incubation the plates were washed once with PBS and the attached cells were fixed with 3% paraformaldehyde in PBS and stained with 0.5% toluidine blue in 3.7% formaldehyde. The cells were stained overnight at room temperature and the optical density at 590 nm of toluidine blue stained cells was determined using a vertical pathway spectrophotometer to quantitate attachment (VMAX Kinetic Microplate Reader, Molecular Devices, Menlo Park, Calif.). This procedure is a modification of a previously published method (Cardarelli et al, J. Biol. Chem., 269:18668-18673 (1994) and Cardarelli et al, Proc. Natl. Acad. Sci. USA, 83:2647-2651 (1986)).

IC50 [1] | IC50 [2] | Compound
≤ 250 nM | ≤ 50 nM | CCOC(=O)N1CSC(C)(C)[C@@H]1C(=O)N[C@@H](Cc1ccc(NC(=O)c2c(Cl)cccc2Cl)cc1)C(=O)O (relative stereo) [Example 31, [S-(R*,R*)]-4-[[[1-Carboxy-2-[4-[(2,6-dichlorobenzoyl)amino]phenyl]ethyl]amino]carbonyl]-5,5-dimethyl-3-thiazolidinecarboxylic Acid 3-Ethyl Ester]
≥ 1000 nM | ≥ 750 nM | COC(=O)[C@H](Cc1ccc(OCc2c(Cl)cccc2Cl)cc1)NC(=O)[C@H]1CSCN1C(=O)OC(C)(C)C (relative stereo) [Example 32, [S-(R*,R*)]-4-[[[1-[4-[(2,6-Dichlorophenyl)methoxy]phenyl]methyl]-2-methoxy-2-oxoethyl]amino]carbonyl]-3-thiazolidinecarboxylic Acid 3-(1,1-Dimethylethyl)ester]
≤ 250 nM | 50 to 750 nM | CC(C)(C)OC(=O)N1CSC[C@@H]1C(=O)N[C@@H](Cc1ccc(OCc2c(Cl)cccc2Cl)cc1)C(=O)O (relative stereo) [Example 33, [S-(R*,R*)]-4-[[[1-Carboxy-2-[4-[(2,6-dichlorophenyl)methoxy]phenyl]ethyl]amino]carbonyl]-3-thiazolidinecarboxylic Acid 3-(1,1-Dimethylethyl)ester]
≥ 1000 nM | 50 to 750 nM | CCOC(=O)N1CSC[C@@H]1C(=O)N[C@@H](Cc1ccc(OCc2c(Cl)cccc2Cl)cc1)C(=O)OC (relative stereo) [Example 34, [S-(R*,R*)]-4-[[[1-[4-[(2,6-Dichlorophenyl)methoxy]phenylmethyl]-2-methoxy-2-oxoethyl]amino]carbonyl]-3-thiazolidinecarboxylic Acid 3-Ethyl Ester]

More lines, now with the values behind:

Compound | IC50 [1] | IC50 [2]
COC(=O)[C@H](Cc1ccc(NC(=O)c2c(Cl)cccc2Cl)cc1)NC(=O)[C@H]1CSCN1C(=O)OCCN1CCOCC1 (relative stereo) [Example 24, [S-(R*,R*)]-4-[[[1-[[4-[(2,6-Dichlorobenzoyl)amino]phenyl]methyl]-2-methoxy-2-oxoethyl]amino]carbonyl]-3-thiazolidinecarboxylic Acid 3-[2-(4-Morpholinyl)ethyl]ester] | 250 to 1000 nM | 50 to 750 nM
O=C(Nc1ccc(C[C@H](NC(=O)[C@H]2CSCN2C(=O)OCCN2CCOCC2)C(=O)O)cc1)c1c(Cl)cccc1Cl (relative stereo) [Example 25, [S-(R*,R*)]-4-[[[1-Carboxy-2-[-4-[(2,6-dichlorobenzoyl)amino]phenyl]ethyl]amino]carbonyl]-3-thiazolidinecarboxylic Acid 3-[2-(4-Morpholinyl)ethyl]ester] | ≤ 250 nM | ≤ 50 nM
COC(=O)[C@H](Cc1ccc(NC(=O)c2c(Cl)cccc2Cl)cc1)NC(=O)[C@@H]1N(C(=O)OC(C)(C)C)CSC1(C)C (relative stereo) [Example 28, [S-(R*,R*)]-4-[[[1-[[4-[(2,6-Dichlorobenzoyl)amino]phenyl]methyl]-2-methoxy-2-oxoethyl]amino]carbonyl]-5,5-dimethyl-3-thiazolidinecarboxylic Acid 3-(1,1-Dimethylethyl)ester] | ≥ 1000 nM | ≥ 750 nM
CC(C)(C)OC(=O)N1CSC(C)(C)[C@@H]1C(=O)N[C@@H](Cc1ccc(NC(=O)c2c(Cl)cccc2Cl)cc1)C(=O)O (relative stereo) [Example 29, [S-(R*,R*)]-4-[[[1-Carboxy-2-[4-[(2,6-dichlorobenzoyl)amino]phenyl]ethyl]amino]carbonyl]-5,5-dimethyl-3-thiazolidinecarboxylic Acid 3-(1,1-Dimethylethyl)ester] | 250 to 1000 nM | 50 to 750 nM
CCOC(=O)N1CSC(C)(C)[C@@H]1C(=O)N[C@@H](Cc1ccc(NC(=O)c2c(Cl)cccc2Cl)cc1)C(=O)OC (relative stereo) [Example 30, [S-(R*,R*)]-4-[[[1-[[4-[(2,6-Dichlorobenzoyl)amino]phenyl]methyl]-2-methoxy-2-oxoethyl)amino]carbonyl]-5,5-dimethyl-3-thiazolidinecarboxylic Acid 3-Ethyl Ester] | ≥ 1000 nM | 50 to 750 nM
